Patent publication US20250223301A1, “KINASE INHIBITORS, PREPARATION METHODS AND USES THEREOF” (InventisBio Co., Ltd., priority 2022, published 2025)

What was measured:
PBMC = test: Human PBMC IL-2 assay; type: cell-based; details: anti-CD3/CD28 stimulation overnight, IL-2 level
Protocol: PBMC (frozen) obtained from health donor were thawed in RPMI-1640 medium with 10% FBS and incubated for 4 h at 37° C. In a 96-well plate, −200,000 PBMC cells in 160 uL were added to each assay well. Ten microliter compound solution (10 uM to 0.6 nM, 8 points with 4-fold dilution) were added to cells in each well and incubated for 60 minutes at 37° C. Then 30 uL anti-CD3/CD28 antibody (Catalog #10991, Stemcell) were added to cells and incubated overnight at 37° C. After the incubation, 16 uL supernatants were transferred into a new 384-well white assay plate for cytokine analysis. IL-2 level was quantified using Human IL-2 kit (Catalog #62HIL02PEG, Cisbio) as described in the manufacturer manual.
(§1) X is log of compound concentration, Y is the IL-2 concentration, increasing as X increases.

Jurkat cells = test: Jurkat IL-2 assay; type: cell-based; details: Homo sapiens, anti-CD3/CD28 stimulation overnight, IL-2 level
Protocol: Jurkat cells (ATCC) were cultured in RPMI-1640 medium supplemented with 10% FBS. In a 96-well plate, −250,000 cells in 130 uL were added to each assay well. Ten microliter compound solution (5 uM to 2.3 nM, 8 points with 3-fold dilution) were added to cells in each well and incubated for 60 minutes at 37° C. Then 10 uL anti-CD3/CD28 antibody (Catalog #10991, Stemcell) were added and incubated overnight at 37° C. After the incubation, 16 uL supernatants were transferred into a new 384-well white assay plate for cytokine analysis. IL-2 was quantified using Human IL-2 kit (Catalog #62HIL02PEG, Cisbio) as described in the manufacturer manual.
as §1

SMILES | EC50 (Jurkat cells) | EC50 (PBMC)
CC[C@@H](c1ccc(C(F)(F)F)cc1)N1C[C@H]2COc3c(c4nc(C#N)ccc4n(C)c3=O)N2C[C@H]1C (stereo in doubt) [Compound 179] | 29 nM | 58 nM
CC[C@H]1CN([C@@H](CC)c2ccc(C(F)(F)F)cc2C)[C@H](CC)CN1c1nc2nncn2c2ccc(C#N)nc12 (stereo in doubt) [Compound 137] | 248 nM | 96 nM
CC[C@H]1CN2[C@@H](COC[C@@H]2c2ccc(C(F)(F)F)cc2)CN1c1nc2nncn2c2ccc(C#N)nc12 [Compound 192] |  | 3050 nM
CCC[C@@H]1CN2c3c(c(=O)n(C)c4ccc(C#N)nc34)OC[C@@H]2CN1[C@H](C)c1ccc(OCC2CC2)cc1F (stereo in doubt) [Compound 164] |  | 233 nM
CC[C@@H]1CN2c3c(c(=O)n(C)c4ccc(C#N)nc34)OC[C@@H]2CN1[C@@H](CC)c1ccc(C(F)(F)F)cc1F (stereo in doubt) [Compound 144] | 76 nM | 61 nM
CC[C@@H]1CN2c3c(c(=O)n(C)c4ccc(C#N)nc34)OC[C@@H]2CN1[C@@H](CC)c1c(F)cc(F)cc1F (stereo in doubt) [Compound 147] | 55 nM | 96 nM
CC[C@@H]1CN2c3c(c(=O)n(C)c4ccc(C#N)nc34)OC[C@@H]2CN1[C@@H](CC)c1ccc(C#N)cc1 (stereo in doubt) [Compound 161] | 26 nM | 53 nM
Cn1c(=O)nc(N2CCC[C@]3(CC2)CC(c2ccc(OC(F)(F)F)cc2)=NO3)c2nc(C#N)ccc21 (stereo in doubt) [Compound 139] | 251 nM | 869 nM
CC[C@@H]1CN2c3c(c(=O)n(C)c4ccc(C#N)nc34)OC[C@@H]2CN1c1nc2cc(C)ccc2o1 [Compound 165] |  | 375 nM
CC[C@@H]1CN2c3c(c(=O)n(C)c4ccc(C#N)nc34)OC[C@@H]2CN1[C@H](CC)c1ccc(F)c(F)c1 (stereo in doubt) [Compound 182] |  | 1880 nM
CC[C@@H]1CN2c3c(c(=O)n(C)c4ccc(C#N)nc34)OC[C@@H]2CN1[C@H](CC)c1ccc(S(C)(=O)=O)cc1 (stereo in doubt) [Compound 185] |  | 7230 nM
Cc1ccc2oc(C3(C)CCN(c4c(C#N)c(=O)n(C)c5ccc(C#N)nc45)CC3)nc2c1 [Compound 7] |  | 372 nM
CC[C@H]1CN([C@H](CC)c2ccc(C3CC3)nc2)[C@H](CC)CN1c1nc2nncn2c2ccc(C#N)nc12 (stereo in doubt) [Compound 189] |  | 276 nM
CC[C@H](c1ccc(C(F)(F)F)cc1)N1C[C@H]2COc3c(c4nc(C#N)ccc4n(C)c3=O)N2C[C@H]1C (stereo in doubt) [Compound 178] |  | 299 nM
CCC[C@@H]1CN2c3c(c(=O)n(C)c4ccc(C#N)nc34)OC[C@@H]2CN1[C@@H](C)c1ccc(OCC2CC2)cc1F (stereo in doubt) [Compound 163] |  | 340 nM
C[C@H]1CC2(CCN1c1nc(=O)n(C)c3ccc(C#N)nc13)CC(c1ccc(OC(F)(F)F)cc1)=NO2 (some centres unmarked) [Compound 50] | 435 nM | 
CC[C@@H]1CN2c3c(c(=O)n(C)c4ccc(C#N)nc34)OC[C@@H]2CN1[C@H](CC)c1ccc(C(F)(F)F)cn1 (stereo in doubt) [Compound 187] |  | 322 nM
C[C@@H]1CN2c3c(c(=O)n(C)c4ccc(C#N)nc34)OC[C@@H]2CN1[C@@H](C)c1ccc(Cl)cc1Cl (stereo in doubt) [Compound 268] |  | 890 nM
CC[C@@H]1CN2c3c(c(=O)n(C)c4ccc(C#N)nc34)N(C)C[C@@H]2CN1[C@H](CC)c1ccc(C(F)(F)F)cc1 [Compound 220] |  | 3840 nM
CC[C@H](c1ccc(F)c(Cl)c1)N1C[C@H]2COc3c(c4nc(C#N)ccc4n(C)c3=O)N2C[C@H]1C (stereo in doubt) [Compound 237] |  | 1330 nM
CC[C@@H]1CN2c3c(c(=O)n(C)c4ccc(C#N)nc34)OC[C@@H]2CN1[C@H](CC)c1c(F)ccc(F)c1F (stereo in doubt) [Compound 171] |  | 1250 nM
CC[C@H]1CN([C@@H](CC)c2ccc(C3CC3)nc2)[C@H](CC)CN1c1nc2nncn2c2ccc(C#N)nc12 (stereo in doubt) [Compound 188] |  | 577 nM

Second part, led by results:

EC50 (Jurkat cells) | SMILES | EC50 (PBMC)
150 nM | CC[C@@H]1CN2c3c(c(=O)n(C)c4ccc(C#N)nc34)OC[C@@H]2CN1[C@@H](CC)c1ccc(C(F)(F)F)cc1Cl (stereo in doubt) [Compound 207] | 284 nM
218 nM | CCC[C@H](c1ccc(Cl)cc1)N1C[C@H]2COc3c(c4nc(C#N)ccc4n(C)c3=O)N2C[C@H]1CC (stereo in doubt) [Compound 312] | 49 nM
565 nM | CC[C@@H]1CN2c3c(c(=O)n(C)c4ccc(C#N)cc34)OC[C@@H]2CN1[C@@H](CC)c1ccc(C(F)(F)F)cc1 [Compound 210] | 1720 nM
588 nM | C[C@H]1c2cccc(-c3ccc(C(F)(F)F)cc3)c2CCN1c1nc(=O)n(C)c2ccc(C#N)nc12 [Compound 241] | 1100 nM
163 nM | CC[C@@H]1CN2c3c(c(=O)n(C)c4ccc(C#N)nc34)OC[C@@H]2CN1Cc1ccc(Cl)c(Cl)c1 [Compound 266] | 111 nM
189 nM | CC[C@@H](c1ccc(F)c(Cl)c1)N1C[C@H]2COc3c(c4nc(C#N)ccc4n(C)c3=O)N2C[C@H]1C (stereo in doubt) [Compound 238] | 78 nM
91 nM | CC[C@@H]1CN2c3c(c(=O)n(C)c4ccc(C#N)nc34)OC[C@@H]2CN1[C@H](CC)c1ccc(Cl)c(F)c1 (stereo in doubt) [Compound 296] | 68 nM
13 nM | CC[C@@H]1CN2c3c(c(=O)n(C)c4ccc(C#N)nc34)OC[C@@H]2CN1[C@@H](CC)c1ccc(C(F)(F)F)cn1 (stereo in doubt) [Compound 186] | 23 nM
223 nM | CC[C@H](c1ccc(Cl)c(Cl)c1)N1C[C@H]2COc3c(c4nc(C#N)ccc4n(C)c3=O)N2C[C@H]1C (stereo in doubt) [Compound 321] | 540 nM
77 nM | C[C@@H]1CN2c3c(c(=O)n(C)c4ccc(C#N)nc34)OC[C@@H]2CN1[C@H](C)c1ccc(C(F)F)cc1 (stereo in doubt) [Compound 314] | 22 nM
287 nM | CC[C@@H]1CN2c3c(c(=O)n(C)c4ccc(C#N)nc34)OC[C@@H]2CN1[C@@H](CC)c1ccc(C(F)(F)F)cc1C (stereo in doubt) [Compound 233] | 361 nM
538 nM | CC[C@@H]1CN2c3c(c(=O)n(C)c4ccc(C#N)nc34)OC[C@@H]2CN1[C@@H](CO)c1ccc(C(F)(F)F)cc1 [Compound 235] | 662 nM
687 nM | CC[C@@H]1CN2c3c(c(=O)n(C)c4ccc(C#N)nc34)OC[C@@H]2CN1[C@H](CC)c1c(Cl)cccc1Cl (stereo in doubt) [Compound 239] | 3420 nM
132 nM | C[C@@H]1CN2c3c(c(=O)n(C)c4ccc(C#N)nc34)OC[C@@H]2CN1[C@@H](C)c1ccc(Cl)c(Cl)c1 (stereo in doubt) [Compound 257] | 119 nM
165 nM | CC[C@@H]1CN2c3c(c(=O)n(C)c4ccc(C#N)nc34)OC[C@@H]2CN1Cc1ccc(C(F)(F)F)cc1 [Compound 265] | 152 nM
582 nM | CC[C@@H]1CN2c3c(c(=O)n(C4CCC4)c4ccc(C#N)nc34)OC[C@@H]2CN1[C@@H](CC)c1ccc(C(F)(F)F)cc1 (stereo in doubt) [Compound 263] | 
